In brackets after ≈: the same amount, converted by molar mass.
Columns and labels:
[1] = test system: methicillin-resistant S. aureus (ATCC 43300); assay: MIC and MBC, broth dilution, MRSA ATCC 43300; type: cell-based; conditions: Staphylococcus aureus
Experimental: (§1) The synthesized pleuromutilin derivatives 8–30 were tested against four Gram-positive bacteria (MRSA ATCC 43300, S. aureus ATCC 29213 and two clinical strains of S. aureus (AD3 and 144) isolated from Guangdong Province). Tiamulin was used as the positive control in this experiment.
(§2) MIC values were tested following our previous work. The derivatives were dissolved in an aqueous solution of 2.5% tween-80 and 2.5% DMSO to make a solution with a concentration of 1000 µg/mL. The solution was diluted 12 times with MH broth to give a concentration range of 32–0.01 µg/mL. The bacteria (5 × 10^5 CFU/mL) were added in each well. For each compound concentration, three parallel experiments were set. The 96-well plate was incubated for 22–26 h at 37 °C. The MIC value was recorded as the minimal concentration that inhibits the visible growth of tested bacteria completely.
(§3) The MBC of these pleuromutilin derivatives were tested according to a previously reference. […] Then, the values of MBC were determined by laying 100 μL aliquots from the wells onto the MH agar plates without visible growth. The MH agar plate was cultured for a further 22–26 h at 37 °C.

S. aureus (ATCC 29213) = assay: MIC and MBC, broth dilution, S. aureus ATCC 29213; type: cell-based; conditions: Staphylococcus aureus, ATCC29213
Experimental: as §1, §2, §3

S. aureus (AD3) = assay: MIC and MBC, broth dilution, S. aureus AD3; type: cell-based; conditions: Staphylococcus aureus; S. aureus AD3 (clinical strain)
Experimental: as §1, §2, §3

S. aureus (144) = assay: MIC and MBC, broth dilution, S. aureus 144; type: cell-based; conditions: Staphylococcus aureus; S. aureus 144 (clinical strain)
Experimental: as §1, §2, §3

50S ribosome = assay: SPR interaction and affinity analysis; type: binding, S. aureus ATCC 43300; conditions: 4 °C; for Avg ka / Avg kd: 1:1 Langmuir binding; for Kd: KD = Kd/Ka
Experimental: S. aureus ATCC 43300 was used to prepare the 50S ribosomal subunit the same way as described previously. Cells were grown overnight in Brain Heart Infusion broth at 37 °C and harvested for 1.5 h at an OD600. Cells were washed with 10 mM Tris-HCl twice at pH = 7.5, and resuspended in 5 mL buffer A (20 mM HEPES-HCl pH = 7.5, 21 mM Mg(OAc)2, 100 mM NH4Cl, 1 mM DTT, 1 mM EDTA). Cells were broken by an ultrasound crusher. The lysate was centrifuged for 90 min at 20,000× g to clear cell debris.
The solution was layered on a sucrose cushion of 15 mL (10 mM Hepes-KOH pH 7.5, 25 mM Mg(OAc)2, 500 mM KCl, […], 1 mM DTT, 0.5 mM EDTA). Centrifugation was carried out for 15 h at 45,000 rpm using an ultracentrifuge Beckman (Beckman Coulter, Shanghai, China), Type 70Ti rotor. The crude ribosome pellet was resuspended in buffer E (10 mM Hepes-KOH pH 7.5, 10 mM Mg(OAc)2, 100 mM KCl, 1 mM DTT, 0.5 mM EDTA), then layered on 9 mL of 7–30% sucrose gradient and centrifuged in an ultracentrifuge Beckman, type SW40Ti rotor at 17,100 rpm for 15 h. The gradient was analyzed on the AKTA explorer system (Amersham, UK). The fractions corresponding to the 50S ribosomal subunit were collected and further subjected to precipitation by PEG 20,000. The 50S ribosomal subunit pellet was gently dissolved in 200 µL of storage buffer (10 mM HEPES-HCl pH = 7.5, 10 mM Mg(OAc)2, 15 mM KCl, 60 mM NH4Cl, 1 mM DTT) and stored at −80 °C.
SPR affinity analysis was performed on the bScreen LB 991 Label-free Microarray System (Berthold Technologies, Black Forest, Germany) at 4 °C and Biodot AD-1520 Array Printer (BIODOT Inc., Irvine, CA, USA) with a Photo-cross-linker SensorCHIP™. Concentrations of each compound were diluted to 100 μM with DMSO as the printing working solution for immobilization. A Biodot AD-1520 Array Printer (BIODOT Inc., CA, USA) was used to control the photo-cross-linker sensor chip and print samples. Each sample was printed four times. In order to check the chip quality and check whether the detection system works, DMSO was used as a system-negative control and rapamycin as a positive control. All positive control dots were divided into four groups and printed on the four corners of the sensor chip. The sensor chip was dried in vacuum after the array print and quickly transferred to a spectra radiator for a photo cross-linking reaction. The sensor chip was washed with C2H5OH, DMF and H2O in turn and evaporated in a N2 atmosphere for 15 min. Then, the Flowcell Cover were assembled.
The 50S ribosome was diluted separately to 200 nM, 400 nM, 800 nM, 1600 nM and 3200 nM with PBST (pH = 7.4, 0.1% Tween 20). Different concentrations of ribosome solutions were injected at a flow rate of 0.5 μL⋅s^−1 for 600 s at the associating stage at 4 °C, followed by PBST at a flow rate of 0.5⋅μL·s^−1 for 360 s at each dissociating stage. Then, the surface was regenerated with Glycine-HCl (pH = 2.0) at a flow rate of 2⋅μL·s^−1 for 300 s.
The raw data of the binding process of compounds and the 50S ribosome were recorded in real time. We compared the response unit (RU) of surface resonance to determine the different binding affinity between each sample dot. The process and analysis of association rate constants (Ka) and dissociation rate constants (Kd) and the equilibrium dissociation constant (KD, Kd/Ka) were performed using the data analysis software of the bScreen LB 991 Label-free Microarray System according to a single-site binding model (1:1 Langmuir binding) with mass transfer limitations for binding kinetics determination.

| Structure (SMILES) | MBC [1] [µg/mL] | MIC [1] [µg/mL] | MBC (S. aureus (ATCC 29213)) [µg/mL] | MIC (S. aureus (ATCC 29213)) [µg/mL] | MBC (S. aureus (AD3)) [µg/mL] | MIC (S. aureus (AD3)) [µg/mL] | MBC (S. aureus (144)) [µg/mL] | MIC (S. aureus (144)) [µg/mL] | Avg ka (50S ribosome) [M⁻¹ s⁻¹] | Avg kd (50S ribosome) [s⁻¹] | Kd (50S ribosome) [µM] | melting point [°C] |
| --- | --- | --- | --- | --- | --- | --- | --- | --- | --- | --- | --- | --- |
| C=C[C@]1(C)C[C@@H](OC(=O)CNCCO)[C@]2(C)[C@H](C)CC[C@]3(CCC(=O)[C@H]32)[C@@H](C)[C@@H]1O [Compound 28, 22-Ethanolamine-22-deoxypleuromutilin] | 2 (≈ 4.74 µM) | 1 (≈ 2.37 µM) | 8 (≈ 19 µM) | 2 (≈ 4.74 µM) | 8 (≈ 19 µM) | 2 (≈ 4.74 µM) | 4 (≈ 9.49 µM) | 4 (≈ 9.49 µM) | 2730 | 0.0272 | 9.96 | 91 to 94 |
| C=C[C@]1(C)C[C@@H](OC(=O)CNC23CC4CC(CC(C4)C2)C3)[C@]2(C)[C@H](C)CC[C@]3(CCC(=O)[C@H]32)[C@@H](C)[C@@H]1O [Compound 27, 22-Amantadineyl-22-deoxypleuromutilin] | 0.25 (≈ 0.489 µM) | 0.25 (≈ 0.489 µM) | 1 (≈ 1.95 µM) | 0.5 (≈ 0.977 µM) | 4 (≈ 7.82 µM) | 2 (≈ 3.91 µM) | 8 (≈ 15.6 µM) | 4 (≈ 7.82 µM) | 7.36 | 0.0215 | 2920 | 105 to 109 |
| C=C[C@]1(C)C[C@@H](OC(=O)CNCCCc2ccccc2)[C@]2(C)[C@H](C)CC[C@]3(CCC(=O)[C@H]32)[C@@H](C)[C@@H]1O [Compound 19, 22-(3-Phenylpropylamineyl)-22-deoxypleuromutilin] | 2 (≈ 4.03 µM) | 1 (≈ 2.02 µM) | 4 (≈ 8.07 µM) | 2 (≈ 4.03 µM) | 4 (≈ 8.07 µM) | 1 (≈ 2.02 µM) | 8 (≈ 16.1 µM) | 4 (≈ 8.07 µM) | 3110 | 0.000469 | 0.151 | 83 to 84 |
| C=C[C@]1(C)C[C@@H](OC(=O)CNCCCCCCCC)[C@]2(C)[C@H](C)CC[C@]3(CCC(=O)[C@H]32)[C@@H](C)[C@@H]1O [Compound 22, 22-Octylamineyl-22-deoxypleuromutilin] | 32 (≈ 65.3 µM) | 16 (≈ 32.7 µM) | > 32 | 16 (≈ 32.7 µM) | > 32 | 32 (≈ 65.3 µM) | > 32 | 32 (≈ 65.3 µM) | 114 | 0.00073 | 6.41 | 76 to 77 |
| C=C[C@]1(C)C[C@@H](OC(=O)CN2CCOCC2)[C@]2(C)[C@H](C)CC[C@]3(CCC(=O)[C@H]32)[C@@H](C)[C@@H]1O [Compound 29, 22-Morpholine-22-deoxypleuromutilin] | 1 (≈ 2.23 µM) | 1 (≈ 2.23 µM) | 2 (≈ 4.47 µM) | 2 (≈ 4.47 µM) | 8 (≈ 17.9 µM) | 2 (≈ 4.47 µM) | 4 (≈ 8.94 µM) | 2 (≈ 4.47 µM) | 1.57 | 0.872 |  | 157 to 159 |
| C=C[C@]1(C)C[C@@H](OC(=O)CNCCS(C)(=O)=O)[C@]2(C)[C@H](C)CC[C@]3(CCC(=O)[C@H]32)[C@@H](C)[C@@H]1O [Compound 25, 22-(2-(Methylsulfonyl)ethylamineyl)-22-deoxypleuromutilin] | 2 (≈ 4.14 µM) | 1 (≈ 2.07 µM) | 2 (≈ 4.14 µM) | 2 (≈ 4.14 µM) | 4 (≈ 8.27 µM) | 2 (≈ 4.14 µM) | 8 (≈ 16.5 µM) | 4 (≈ 8.27 µM) | 2.70 | 0.00833 | 3080 | 183 to 186 |
| C=C[C@]1(C)C[C@@H](OC(=O)CNCCc2ccccc2C)[C@]2(C)[C@H](C)CC[C@]3(CCC(=O)[C@H]32)[C@@H](C)[C@@H]1O [Compound 18, 22-(2-Methylphenethylamineyl)-22-deoxypleuromutilin] | 2 (≈ 4.03 µM) | 1 (≈ 2.02 µM) | 8 (≈ 16.1 µM) | 2 (≈ 4.03 µM) | 16 (≈ 32.3 µM) | 4 (≈ 8.07 µM) | 4 (≈ 8.07 µM) | 4 (≈ 8.07 µM) | 134 | 0.00445 | 33.2 | 91 to 93 |
| C=C[C@]1(C)C[C@@H](OC(=O)CNc2ccc(Cl)cc2)[C@]2(C)[C@H](C)CC[C@]3(CCC(=O)[C@H]32)[C@@H](C)[C@@H]1O [Compound 11, 22-(4-Chloroanilineyl)-22-deoxypleuromutilin] | 0.25 (≈ 0.512 µM) | 0.12 (≈ 0.246 µM) | 1 (≈ 2.05 µM) | 0.5 (≈ 1.02 µM) | 1 (≈ 2.05 µM) | 0.25 (≈ 0.512 µM) | 2 (≈ 4.1 µM) | 1 (≈ 2.05 µM) |  | 0.0019 | 51.8 | 94 to 95 |
